US20250120958A1, “Treatment of GM2 Gangliosidosis” (Azafaros B.V., priority 2022, published 2025)

Key:
GbA2 = target: T1, GbA2 (Homo sapiens, UniProt Q9HCG7); assay: In vitro potency on GbA2 (non-lysosomal glucosylceramidase); assay type: biochemical
T1 sequence (Q9HCG7 1-927): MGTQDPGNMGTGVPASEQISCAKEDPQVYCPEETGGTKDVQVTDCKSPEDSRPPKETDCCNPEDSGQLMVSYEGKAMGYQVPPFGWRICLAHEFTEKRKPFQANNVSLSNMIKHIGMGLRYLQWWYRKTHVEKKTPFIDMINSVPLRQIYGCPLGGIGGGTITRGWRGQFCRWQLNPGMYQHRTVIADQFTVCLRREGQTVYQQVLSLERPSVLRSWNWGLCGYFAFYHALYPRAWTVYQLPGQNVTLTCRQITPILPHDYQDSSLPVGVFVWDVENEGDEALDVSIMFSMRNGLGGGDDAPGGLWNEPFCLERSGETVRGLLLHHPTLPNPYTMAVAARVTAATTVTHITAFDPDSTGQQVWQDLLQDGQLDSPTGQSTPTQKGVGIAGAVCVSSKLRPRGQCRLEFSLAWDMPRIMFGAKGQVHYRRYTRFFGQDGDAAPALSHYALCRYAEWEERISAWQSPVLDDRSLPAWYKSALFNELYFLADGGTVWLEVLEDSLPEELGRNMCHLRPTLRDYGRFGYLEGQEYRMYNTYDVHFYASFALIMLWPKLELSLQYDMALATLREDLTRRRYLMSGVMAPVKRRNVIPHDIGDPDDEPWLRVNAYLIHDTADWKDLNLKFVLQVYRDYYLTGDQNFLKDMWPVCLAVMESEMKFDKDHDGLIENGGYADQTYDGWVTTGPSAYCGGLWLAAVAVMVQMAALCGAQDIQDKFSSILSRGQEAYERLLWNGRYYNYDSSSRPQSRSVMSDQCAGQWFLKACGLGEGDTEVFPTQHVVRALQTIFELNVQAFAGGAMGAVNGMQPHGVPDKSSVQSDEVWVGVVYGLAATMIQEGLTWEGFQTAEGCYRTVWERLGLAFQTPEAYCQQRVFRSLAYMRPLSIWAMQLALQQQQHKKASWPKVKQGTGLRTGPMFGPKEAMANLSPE

[1] = Dynamic vapour sorption (DVS); assay type: physicochemical
Source text: In addition, the behaviour of the sample of the Form 3 crystalline form of compound of formula (I) obtained by equilibration with ethyl acetate was investigated under variable water vapour pressures (DVS measurement). At the highest relative humidity of 95% the sample absorbed about 1.2% of water that was released when the relative humidity was returned to the 50% RH. The amount of absorbed water is small, and the water sorption is reversible. […] For Form 2, at high relative humidity the sample absorbed about 18% of water; however, most of the absorbed water was released when the relative humidity was returned to the 50% RH.
Dynamic vapour sorption (DVS) measurements were performed with an SPS11-100n “Sorptions Prufsystem” from ProUmid (formerly “Projekt Messtechnik”), August-Nagel-Str. 23, 89079 Ulm (Germany). About 5 mg to 20 mg of sample was put into an aluminum sample pan. Humidity change rates of 5% per hour were used.

[2] = Brain pharmacokinetics after 16 weeks of once daily administration (LC-MS/MS); assay type: in vivo, mouse
Protocol: Brain samples were collected, rinsed with saline and blotted dry. Samples were fixed in 4% PFA for immunohistochemical analyses; frozen and kept for gene expression and molecular biology analyses; and used frozen for LC-MS/MS analysis.
Unless otherwise stated, the methodology and sample collection were performed as in Example 2. […] Twenty-four hours after the last dose the animals were euthanized at varying time-points and AZ-3102 was measured by LC-MS/MS. […] However, exposure (AUC0-24) proportionality was well conserved between doses: 6 versus 3 (1.8-fold); 3 and 1.5 (2.0-fold) and 1.5 and 0.5 (2.4-fold). […] The reduced clearance in the brain versus plasma has also been observed in prior studies with rats and dogs (internal data). […] The plasma concentration at all doses was approximately 1 ng/mL after 24 h and in the brain the concentration was greater than 20 ng/g tissue.

[3] = Stability of dosing formulation; assay type: physicochemical; settings: 0.01 mg/mL-2 mg/mL in purified water/citric acid/NaOH, storage 15-25° C.
Source text: • 1. Introduction and preparation of vehicle control • 1.1. Read the method prior to proceeding with laboratory work • 1.2. Read Study Plan • 1.3. Ensure the work-station is clean and select the correct equipment, clean glassware etc. for the study. • 1.4. Formulate in ascending order of concentration. • 1.5. Start with control group—measure the required volume of purified water and magnetically stir. Whilst magnetically stirring, adjust pH to 3.5-2.5 using 1 M citric acid. Record volumes in raw data. • 1.6. Stir for a minimum of 30 minutes. Record stir times in raw data. • 1.7. Adjust the pH to 4.5-5.5 using 0.1 M NaOH. Record volumes in raw data. • 1.8. Stir for a minimum of 20 minutes using a magnetic stirrer. Record stir times in the raw data. • 1.9. Sample at this point if required. • 2. Test item formulations • 2.1. Weigh the required amount of test item: e.g., For a 0.9 mg/mL target concentration in 600 mL, weigh 540 mg. • 2.2. Add 70% of the final volume of purified water to the test item to obtain a thin suspension (may be difficult to see at these low concentrations): e.g., 420 mL • 2.3. Add not more than 3 molar equivalents of citric acid, and record the pH which should be pH 3.5-2.5, e.g., 3.74 mL of 1 M citric acid solution in water. • Note: The suspension should clear up as an indication for dissolution of the test item. • 2.4. […]

Hexb (+/−) mice = assay: Lifespan of heterozygous Hexb (+/−) mice under treatment; settings: 3 mg/kg/day
Protocol: For all cohorts, drug and/or vehicle (control) were administered by gastric gavage once a day, between 8.00-12.00 am, from the age of 30 days until euthanasia.
In addition, animals heterozygous for the Hexb gene (+/−) were treated with vehicle or 3 mg/kg/day. Dosing continued until the animals reached their humane endpoints determined in a blinded fashion by the animal care staff and primarily consisted of the inability to reach sternal recumbency after 10 seconds and, if achieved, was additionally verified by the senior laboratory technician prior to the commencement of the animal being euthanized.

In the case of OC[C@H]1[C@@H](O)[C@H](O)[C@@H](O)CN1CCCCCOCc1ccc(-c2ccccc2)c(F)c1 [AZ-3102], the “inhibitory activity on GbA2” value (GbA2) is reported as “low nM”, the IC50 (GbA2; in vitro potency) is reported as 692 pM and the hygroscopicity ([1]; DVS) is reported as “non-hygroscopic or substantially non-hygroscopic”. For the same compound, the “water absorbed (DVS)” value ([1]; highest relative humidity of 95%, reversible) was “about 1.2%”, the “concentration profile in brain” value ([2]; 24 h period, most dose groups) was “sustained with very little decrease” and the concentration at 24 h ([2]; Hexb (−/−) and Hexb (+/−), mouse, brain, oral, all doses) was over 20 ng/g. For the same compound, the Stability of formulation [3] was 8 days and the “effect on lifespan compared to vehicle” value (Hexb (+/−) mice) was “no effect on lifespan”.
